In patent US12398130B2, “Acid addition salts of piperazine derivatives” (Asceneuron SA, priority 2016, dated 2025):
Where a name gives a salt, the structure may show the parent alone.

Assay: Visual aqueous solubility
Format: physicochemical
Conditions: water added in portions to ~10 mg, assessed visually after brief equilibration
Experimental: The salts and free base (˜10 mg) were weighed into glass vials and water was added in 0.1 mL portions up to 3 mL and 1 mL portions thereafter. Solubility was assessed visually following a brief period of equilibration.

Visual aqueous solubility (listed as Free base) [mg/mL] | Visual aqueous solubility [mg/mL] | SMILES
<0.5 |  | CC(=O)Nc1nnc(N2CCN([C@@H](C)c3ccc4c(c3)OCO4)CC2)s1 [Example 69, (S)—N-(5-(4-(1-(benzo[d][1,3]dioxol-5-yl)ethyl)piperazin-1-yl)-1,3,4-thiadiazol-2-yl)acetamide]
 | ~4.5 | CC(=O)Nc1nnc(N2CCN([C@@H](C)c3ccc4c(c3)OCO4)CC2)s1 [Hydrochloride salt, (S)—N-(5-(4-(1-(benzo[d][1,3]dioxol-5-yl)ethyl)piperazin-1-yl)-1,3,4-thiadiazol-2-yl)acetamide]
 | ~4.5 | CC(=O)Nc1nnc(N2CCN([C@@H](C)c3ccc4c(c3)OCO4)CC2)s1 [Maleate salt, (S)—N-(5-(4-(1-(benzo[d][1,3]dioxol-5-yl)ethyl)piperazin-1-yl)-1,3,4-thiadiazol-2-yl)acetamide]
 | ~20 | CC(=O)Nc1nnc(N2CCN([C@@H](C)c3ccc4c(c3)OCO4)CC2)s1 [L-Tartrate salt, (S)—N-(5-(4-(1-(benzo[d][1,3]dioxol-5-yl)ethyl)piperazin-1-yl)-1,3,4-thiadiazol-2-yl)acetamide]
